In patent US20250250537A1, “IN VITRO INSECT FAT CULTIVATION FOR CELLULAR AGRICULTURE APPLICATIONS” (Trustees of Tufts College, priority 2022, published 2025):

Key:
Ms PCs = test: Lipid accumulation screen in Ms PCs (BODIPY and Oil Red O staining, Oil Red O dye elution); assay type: cell-based, M. sexta; conditions: 1 mM, 7 days in culture
Protocol: To screen for lipid accumulation in Ms PCs, cells were seeded at 100,000 cells/cm^2 in 48-well plates. After 24 hours in culture, media was refreshed with growth media supplemented with variable concentrations (0, 0.01, 0.1, 1 mM) of water-soluble oleic acid (01257, Sigma-Aldrich) or Intralipid (I141, Sigma-Aldrich). After seven days in culture, cells were stained with BODIPY ([…], Fisher Scientific) at a 1:2,000 dilution and NucBlue (R37605, Fisher Scientific) or fixed and stained with Oil Red O (O0625, Sigma-Aldrich). Cells were imaged on a fluorescence microscope (BZ-X800, Keyence). To quantify lipid accumulation, Oil Red O dye from each condition was eluted with isopropanol and absorbance (500 nm) was measured on a microplate reader. To investigate lipid accumulation over time, cells were treated with 0.1 mM of Intralipid and stained with BODIPY and NucBlue on days 1, 4, 7 and 14.

S2 cells = conditions: 1 mM over 24 hours; cited from earlier work

CCCCCCCC/C=C\CCCCCCCC(=O)O [oleic acid]
lipid droplet formation (BODIPY and Oil Red O staining) (Ms PCs): visible
morphology, growth and viability of treated cells (Ms PCs): unhealthy morphology, minimal growth, and were assumed to be nonviable
increase in triacylglycerol content (S2 cells): 5 fold
